Conditions: Hot wire method

F/C=C/C(F)(F)F [trans-1,3,3,3-tetrafluoropropene]
Conditions | thermal conductivity [W/m/K]
281.63 K, 15232 kPa, Liquid | 0.08862
281.67 K, 23307 kPa, Liquid | 0.09249
281.68 K, 20203 kPa, Liquid | 0.09077
281.7 K, 445 kPa, Liquid | 0.08035
281.71 K, 5379 kPa, Liquid | 0.08327
281.72 K, 15226 kPa, Liquid | 0.08837
281.76 K, 10284 kPa, Liquid | 0.08598
281.8 K, 5372 kPa, Liquid | 0.08315
281.82 K, 242 kPa, Gas | 0.01258
281.84 K, 200 kPa, Gas | 0.01237
281.86 K, 99 kPa, Gas | 0.01213
281.86 K, 141 kPa, Gas | 0.01223
282.04 K, 23299 kPa, Liquid | 0.09237
282.06 K, 242 kPa, Gas | 0.01258
282.06 K, 20222 kPa, Liquid | 0.09082
282.07 K, 438 kPa, Liquid | 0.07934
282.1 K, 200 kPa, Gas | 0.01234
282.13 K, 98 kPa, Gas | 0.01208
282.13 K, 140 kPa, Gas | 0.01217
282.14 K, 434 kPa, Liquid | 0.07983
282.14 K, 10286 kPa, Liquid | 0.08591
282.15 K, 23304 kPa, Liquid | 0.09213
282.17 K, 20224 kPa, Liquid | 0.09064
282.2 K, 5363 kPa, Liquid | 0.08314
282.21 K, 15223 kPa, Liquid | 0.08817
282.28 K, 10288 kPa, Liquid | 0.08566
282.31 K, 242 kPa, Gas | 0.01258
282.32 K, 5352 kPa, Liquid | 0.08296
282.36 K, 200 kPa, Gas | 0.0123
282.4 K, 138 kPa, Gas | 0.01213
282.52 K, 245 kPa, Gas | 0.01231
282.54 K, 431 kPa, Liquid | 0.07937
282.54 K, 23312 kPa, Liquid | 0.09188
282.58 K, 200 kPa, Gas | 0.01226
282.58 K, 20215 kPa, Liquid | 0.09057
282.63 K, 428 kPa, Liquid | 0.07955
282.64 K, 15228 kPa, Liquid | 0.08812
282.67 K, 145 kPa, Gas | 0.01228
282.69 K, 23303 kPa, Liquid | 0.09187
282.7 K, 10287 kPa, Liquid | 0.0852
282.73 K, 20227 kPa, Liquid | 0.09025
282.76 K, 103 kPa, Gas | 0.01237
282.77 K, 5352 kPa, Liquid | 0.08245
282.79 K, 15232 kPa, Liquid | 0.0878
282.86 K, 10284 kPa, Liquid | 0.08516
282.9 K, 243 kPa, Gas | 0.01231
282.94 K, 5351 kPa, Liquid | 0.08227
282.95 K, 199 kPa, Gas | 0.01234
283.04 K, 425 kPa, Liquid | 0.07934
283.07 K, 143 kPa, Gas | 0.01233
283.13 K, 23323 kPa, Liquid | 0.0916
283.15 K, 424 kPa, Liquid | 0.0789
283.17 K, 20222 kPa, Liquid | 0.08992
283.19 K, 101 kPa, Gas | 0.01241
283.23 K, 15235 kPa, Liquid | 0.08758
283.26 K, 280 kPa, Gas | 0.01243
283.3 K, 242 kPa, Gas | 0.01229
283.33 K, 10277 kPa, Liquid | 0.08464
283.35 K, 20230 kPa, Liquid | 0.08937
283.37 K, 199 kPa, Gas | 0.01232
283.41 K, 5347 kPa, Liquid | 0.08183
283.44 K, 15228 kPa, Liquid | 0.08686
283.5 K, 142 kPa, Gas | 0.01236
283.52 K, 10279 kPa, Liquid | 0.08429
283.62 K, 5351 kPa, Liquid | 0.08173
283.63 K, 100 kPa, Gas | 0.01246
283.64 K, 280 kPa, Gas | 0.0125
283.73 K, 242 kPa, Gas | 0.01238
283.81 K, 200 kPa, Gas | 0.01236
283.96 K, 140 kPa, Gas | 0.01236
284.06 K, 280 kPa, Gas | 0.01255
284.11 K, 98 kPa, Gas | 0.01249
284.18 K, 242 kPa, Gas | 0.01239
284.26 K, 200 kPa, Gas | 0.01238
284.45 K, 139 kPa, Gas | 0.01242
284.62 K, 97 kPa, Gas | 0.0125
291.03 K, 97 kPa, Gas | 0.01317
291.05 K, 154 kPa, Gas | 0.0132
291.06 K, 237 kPa, Gas | 0.01331
291.26 K, 96 kPa, Gas | 0.013
291.28 K, 154 kPa, Gas | 0.01305
291.28 K, 236 kPa, Gas | 0.01323
291.51 K, 234 kPa, Gas | 0.01316
291.52 K, 95 kPa, Gas | 0.01287
291.52 K, 155 kPa, Gas | 0.01297
291.76 K, 232 kPa, Gas | 0.01312
291.79 K, 95 kPa, Gas | 0.01281
291.79 K, 155 kPa, Gas | 0.01291
292.02 K, 231 kPa, Gas | 0.01307
292.06 K, 94 kPa, Gas | 0.01276
292.06 K, 155 kPa, Gas | 0.01287
292.13 K, 314 kPa, Gas | 0.01299
292.21 K, 238 kPa, Gas | 0.01305
292.32 K, 154 kPa, Gas | 0.01313
292.44 K, 97 kPa, Gas | 0.01319
292.5 K, 311 kPa, Gas | 0.01305
292.51 K, 336 kPa, Gas | 0.0131
292.59 K, 236 kPa, Gas | 0.01303
292.72 K, 154 kPa, Gas | 0.01308
292.85 K, 96 kPa, Gas | 0.01324
292.88 K, 308 kPa, Gas | 0.01303
292.89 K, 333 kPa, Gas | 0.01312
292.98 K, 235 kPa, Gas | 0.01313
293.14 K, 154 kPa, Gas | 0.01304
293.29 K, 330 kPa, Gas | 0.01314
293.3 K, 95 kPa, Gas | 0.01322
293.3 K, 306 kPa, Gas | 0.0131
293.32 K, 349 kPa, Gas | 0.01317
293.41 K, 233 kPa, Gas | 0.01314
293.54 K, 400 kPa, Gas | 0.01316
293.58 K, 155 kPa, Gas | 0.01322
293.68 K, 347 kPa, Gas | 0.01318
293.72 K, 327 kPa, Gas | 0.01313

Liquid
Conditions | thermal conductivity [W/m/K]
283.15 K | 0.07962
293.15 K | 0.07611
